Experimental data published in patent US7855166B2, “Sulfonylamino(thio)carbonyl compounds” (Bayer Cropscience GmbH, priority 2005, dated 2010).

Tests used:
[1] = tested on: weed plants such as Sinapis alba, Chrysanthemum segetum, Avena sativa, Stellaria media, Echinochloa crus-galli, Lolium multiflorum, Setaria viridis, Abutilon …; assay: Pre-emergence effect on weeds (greenhouse pot test, visual scoring); assay type: in vivo; conditions: applied pre-emergence at a rate of 0.3 kg or less of active substance per hectare; scored after 3 to 4 weeks in comparison to untreated controls
[2] = tested on: weed plants such as Sinapis alba, Echinochloa crus-galli, Lolium multiflorum, Chrysanthemum segetum, Setaria viridis, Abutilon theophrasti, Amaranthus …; assay: Post-emergence effect on weeds (greenhouse pot test, visual scoring); assay type: in vivo; conditions: applied post-emergence (three-leaf stage) at a rate of 0.3 kg or less of active substance per hectare; scored after about 3 to 4 weeks in comparison to untreated controls

## CCOc1nn(C(=O)NS(=O)(=O)c2c(I)cccc2OCC(F)F)c(=O)n1C1CC1 [Compound 1.511]
[1]
  herbicidal action against weed plants (visual scoring of plant damage or emergence damage): very good herbidical action
[2]
  herbicidal action against weed plants (effect scored visually): very good herbicidal action

## CCOc1nn(C(=O)NS(=O)(=O)c2c(Cl)ccc(Cl)c2I)c(=O)n1C [Compound 1.850]
[1]
  herbicidal action against weed plants (visual scoring of plant damage or emergence damage): very good herbidical action
[2]
  herbicidal action against weed plants (effect scored visually): very good herbicidal action

## CCOc1nn(C(=O)NS(=O)(=O)c2c(I)cccc2C(F)(F)F)c(=O)n1C1CC1 [Compound 1.143]
[1]
  herbicidal action against weed plants (visual scoring of plant damage or emergence damage): very good herbidical action
[2]
  herbicidal action against weed plants (effect scored visually): very good herbicidal action

## CCOc1nn(C(=O)NS(=O)(=O)c2c(F)cccc2I)c(=O)n1C1CC1 [Compound 1.027]
[1]
  herbicidal action against weed plants (visual scoring of plant damage or emergence damage): very good herbidical action
[2]
  herbicidal action against weed plants (effect scored visually): very good herbicidal action

## CCOc1nn(C(=O)NS(=O)(=O)c2c(I)cccc2OS(=O)(=O)N(C)C)c(=O)n1C1CC1 [Compound 1.755]
[1]
  herbicidal action against weed plants (visual scoring of plant damage or emergence damage): very good herbidical action
[2]
  herbicidal action against weed plants (effect scored visually): very good herbicidal action

## CCOc1nn(C(=O)NS(=O)(=O)c2ccc(C)c(F)c2I)c(=O)n1C [Compound 1.856]
[1]
  herbicidal action against weed plants (visual scoring of plant damage or emergence damage): very good herbidical action
[2]
  herbicidal action against weed plants (effect scored visually): very good herbicidal action

## CCCOc1nn(C(=O)NS(=O)(=O)c2ccc(CCC)cc2I)c(=O)n1C1CC1 [Compound 1.882]
[1]
  herbicidal action against weed plants (visual scoring of plant damage or emergence damage): very good herbidical action
[2]
  herbicidal action against weed plants (effect scored visually): very good herbicidal action

## COc1nn(C(=O)NS(=O)(=O)c2c(I)cccc2OCC(F)(F)F)c(=O)n1C [Compound 1.481]
[1]
  herbicidal action against weed plants (visual scoring of plant damage or emergence damage): very good herbidical action
[2]
  herbicidal action against weed plants (effect scored visually): very good herbicidal action

## CCOc1nn(C(=O)NS(=O)(=O)c2c(I)cccc2OCC2CC2)c(=O)n1C1CC1 [Compound 1.356]
[1]
  herbicidal action against weed plants (visual scoring of plant damage or emergence damage): very good herbidical action
[2]
  herbicidal action against weed plants (effect scored visually): very good herbicidal action

## CCCOc1nn(C(=O)NS(=O)(=O)c2c(I)cccc2OS(=O)(=O)N(C)C)c(=O)n1C [Compound 1.751]
[1]
  herbicidal action against weed plants (visual scoring of plant damage or emergence damage): very good herbidical action
[2]
  herbicidal action against weed plants (effect scored visually): very good herbicidal action

## COc1nn(C(=O)NS(=O)(=O)c2c(I)cccc2SC)c(=O)n1C1CC1 [Compound 1.584]
[1]
  herbicidal action against weed plants (visual scoring of plant damage or emergence damage): very good herbidical action
[2]
  herbicidal action against weed plants (effect scored visually): very good herbicidal action

## COc1nn(C(=O)NS(=O)(=O)c2c(I)cccc2OS(C)(=O)=O)c(=O)n1C [Compound 1.711]
[1]
  herbicidal action against weed plants (visual scoring of plant damage or emergence damage): very good herbidical action
[2]
  herbicidal action against weed plants (effect scored visually): very good herbicidal action

## CCOc1nn(C(=O)NS(=O)(=O)c2ccc(Cl)cc2I)c(=O)n1C [Compound 1.870]
[1]
  herbicidal action against weed plants (visual scoring of plant damage or emergence damage): very good herbidical action
[2]
  herbicidal action against weed plants (effect scored visually): very good herbicidal action

## CCCCc1ccc(S(=O)(=O)NC(=O)n2nc(OC)n(C)c2=O)c(I)c1 [Compound 1.885]
[1]
  herbicidal action against weed plants (visual scoring of plant damage or emergence damage): very good herbidical action
[2]
  herbicidal action against weed plants (effect scored visually): very good herbicidal action

## CCOc1nn(C(=O)NS(=O)(=O)c2ccc(C(F)(F)F)cc2I)c(=O)n1C1CC1 [Compound 1.891]
[1]
  herbicidal action against weed plants (visual scoring of plant damage or emergence damage): very good herbidical action
[2]
  herbicidal action against weed plants (effect scored visually): very good herbicidal action

## COc1nn(C(=O)NS(=O)(=O)c2c(I)cccc2OS(=O)(=O)N(C)C)c(=O)n1C [Compound 1.749]
[1]
  herbicidal action against weed plants (visual scoring of plant damage or emergence damage): very good herbidical action
[2]
  herbicidal action against weed plants (effect scored visually): very good herbicidal action

## CCOc1nn(C(=O)NS(=O)(=O)c2ccccc2I)c(=O)n1C [Compound 1.004]
[1]
  herbicidal action against weed plants (visual scoring of plant damage or emergence damage): very good herbidical action
[2]
  herbicidal action against weed plants (effect scored visually): very good herbicidal action

## CCCCOc1cccc(I)c1S(=O)(=O)NC(=O)n1nc(OC)n(C2CC2)c1=O [Compound 1.278]
[1]
  herbicidal action against weed plants (visual scoring of plant damage or emergence damage): very good herbidical action
[2]
  herbicidal action against weed plants (effect scored visually): very good herbicidal action

## CCCOc1nn(C(=O)NS(=O)(=O)c2c(I)cccc2OC)c(=O)n1C1CC1 [Compound 1.204]
[1]
  herbicidal action against weed plants (visual scoring of plant damage or emergence damage): very good herbidical action
[2]
  herbicidal action against weed plants (effect scored visually): very good herbicidal action

## COc1nn(C(=O)NS(=O)(=O)c2c(I)cccc2OC(F)(F)F)c(=O)n1C1CC1 [Compound 1.447]
[1]
  herbicidal action against weed plants (visual scoring of plant damage or emergence damage): very good herbidical action
[2]
  herbicidal action against weed plants (effect scored visually): very good herbicidal action

## CC(C)Oc1nn(C(=O)NS(=O)(=O)c2c(Cl)ccc(Cl)c2I)c(=O)n1C [Compound 1.852]
[1]
  herbicidal action against weed plants (visual scoring of plant damage or emergence damage): very good herbidical action
[2]
  herbicidal action against weed plants (effect scored visually): very good herbicidal action

## CCCOc1cccc(I)c1S(=O)(=O)NC(=O)n1nc(OC)n(C2CC2)c1=O [Compound 1.238]
[1]
  herbicidal action against weed plants (visual scoring of plant damage or emergence damage): very good herbidical action
[2]
  herbicidal action against weed plants (effect scored visually): very good herbicidal action

## CCCOc1nn(C(=O)NS(=O)(=O)c2c(F)cccc2I)c(=O)n1C1CC1 [Compound 1.028]
[1]
  herbicidal action against weed plants (visual scoring of plant damage or emergence damage): very good herbidical action
[2]
  herbicidal action against weed plants (effect scored visually): very good herbicidal action

## COc1nn(C(=O)NS(=O)(=O)c2c(I)cccc2OC(F)F)c(=O)n1C1CC1 [Compound 1.467]
[1]
  herbicidal action against weed plants (visual scoring of plant damage or emergence damage): very good herbidical action
[2]
  herbicidal action against weed plants (effect scored visually): very good herbicidal action

## CCOc1nn(C(=O)NS(=O)(=O)c2c(Cl)cc(C(F)(F)F)cc2I)c(=O)n1C1CC1 [Compound 1.847]
[1]
  herbicidal action against weed plants (visual scoring of plant damage or emergence damage): very good herbidical action
[2]
  herbicidal action against weed plants (effect scored visually): very good herbicidal action

## CC(C)Oc1cccc(I)c1S(=O)(=O)NC(=O)n1nc(OC(C)C)n(C)c1=O [Compound 1.256]
[1]
  herbicidal action against weed plants (visual scoring of plant damage or emergence damage): very good herbidical action
[2]
  herbicidal action against weed plants (effect scored visually): very good herbicidal action

## CCCOc1nn(C(=O)NS(=O)(=O)c2c(I)cccc2OC(F)(F)F)c(=O)n1C1CC1 [Compound 1.453]
[1]
  herbicidal action against weed plants (visual scoring of plant damage or emergence damage): very good herbidical action
[2]
  herbicidal action against weed plants (effect scored visually): very good herbicidal action

## CCCc1ccc(S(=O)(=O)NC(=O)n2nc(OC)n(C3CC3)c2=O)c(I)c1 [Compound 1.880]
[1]
  herbicidal action against weed plants (visual scoring of plant damage or emergence damage): very good herbidical action
[2]
  herbicidal action against weed plants (effect scored visually): very good herbicidal action

## CCCOc1nn(C(=O)NS(=O)(=O)c2cccc(Cl)c2I)c(=O)n1C1CC1 [Compound 1.834]
[1]
  herbicidal action against weed plants (visual scoring of plant damage or emergence damage): very good herbidical action
[2]
  herbicidal action against weed plants (effect scored visually): very good herbicidal action

## CCOc1nn(C(=O)NS(=O)(=O)c2c(I)cccc2SC)c(=O)n1C1CC1 [Compound 1.585]
[1]
  herbicidal action against weed plants (visual scoring of plant damage or emergence damage): very good herbidical action
[2]
  herbicidal action against weed plants (effect scored visually): very good herbicidal action

## COc1ccc(Cl)c(I)c1S(=O)(=O)NC(=O)n1nc(OC)n(C2CC2)c1=O [Compound 1.820]
[1]
  herbicidal action against weed plants (visual scoring of plant damage or emergence damage): very good herbidical action
[2]
  herbicidal action against weed plants (effect scored visually): very good herbicidal action

## CCOc1nn(C(=O)NS(=O)(=O)c2c(Cl)cc(C(F)(F)F)cc2I)c(=O)n1C [Compound 1.843]
[1]
  herbicidal action against weed plants (visual scoring of plant damage or emergence damage): very good herbidical action
[2]
  herbicidal action against weed plants (effect scored visually): very good herbicidal action

## COc1nn(C(=O)NS(=O)(=O)c2c(I)cccc2OC(C)C(F)(F)F)c(=O)n1C (stereo not shown) [Compound 1.522]
[1]
  herbicidal action against weed plants (visual scoring of plant damage or emergence damage): very good herbidical action
[2]
  herbicidal action against weed plants (effect scored visually): very good herbicidal action

## COc1nn(C(=O)NS(=O)(=O)c2c(Cl)cc(C(F)(F)F)cc2I)c(=O)n1C [Compound 1.842]
[1]
  herbicidal action against weed plants (visual scoring of plant damage or emergence damage): very good herbidical action
[2]
  herbicidal action against weed plants (effect scored visually): very good herbicidal action

## CC(C)Oc1nn(C(=O)NS(=O)(=O)c2c(Cl)cc(C(F)(F)F)cc2I)c(=O)n1C [Compound 1.845]
[1]
  herbicidal action against weed plants (visual scoring of plant damage or emergence damage): very good herbidical action
[2]
  herbicidal action against weed plants (effect scored visually): very good herbicidal action

## CC(C)Oc1nn(C(=O)NS(=O)(=O)c2ccc(C(F)(F)F)cc2I)c(=O)n1C [Compound 1.895]
[1]
  herbicidal action against weed plants (visual scoring of plant damage or emergence damage): very good herbidical action
[2]
  herbicidal action against weed plants (effect scored visually): very good herbicidal action

## CCCCOc1cccc(I)c1S(=O)(=O)NC(=O)n1nc(OC)n(C)c1=O [Compound 1.273]
[1]
  herbicidal action against weed plants (visual scoring of plant damage or emergence damage): very good herbidical action
[2]
  herbicidal action against weed plants (effect scored visually): very good herbicidal action

## CCOc1cccc(I)c1S(=O)(=O)NC(=O)n1nc(OCC)n(C2CC2)c1=O [Compound 1.221]
[1]
  herbicidal action against weed plants (visual scoring of plant damage or emergence damage): very good herbidical action
[2]
  herbicidal action against weed plants (effect scored visually): very good herbicidal action
